Patent US20240002385A1, “PIPERIDINYL-METHYL-PURINE AMINE D-TARTARIC ACID SALTS, CRYSTALLINE FORMS, AND THEIR USE IN TREATING MEDICAL DISEASES AND CONDITIONS” (K36 Therapeutics, Inc., priority 2022, published 2024)
Converted amounts (≈) assume the structure as drawn.

Legend:
Assay type in all cases: physicochemical
[1] = Salt form observations: hydrate formation and hygroscopicity
[2] = Analysis of aqueous solubility (water and fasted state simulated intestinal fluid); details: 37° C.; for solubility at 24 h: thermodynamic from solid, read-out: Test Compound Solubility
Procedure: Solubility of test compounds in two different liquids was evaluated: (a) water and (b) fasted state simulated intestinal fluid. Test compounds analyzed were: • crystalline (S)-1-((R)-3-amino-1-(4-((6-amino-9H-purin-9-yl)methyl)-6-(2,5-difluoro-4-methoxyphenyl) pyridin-3-yl)piperidin-3-yl)-2,2-difluoroethan-1-ol D-tartaric acid salt, as set forth in Example 4 (hereinafter “Compound A”); • (S)-1-((R)-3-amino-1-(4-((6-amino-9H-purin-9-yl)methyl)-6-(2,5-difluoro-4-methoxyphenyl) pyridin-3-yl)piperidin-3-yl)-2,2-difluoroethan-1-ol fumaric acid salt (hereinafter “Compound B”); • (S)-1-((R)-3-amino-1-(4-((6-amino-9H-purin-9-yl)methyl)-6-(2,5-difluoro-4-methoxyphenyl) pyridin-3-yl)piperidin-3-yl)-2,2-difluoroethan-1-ol free base (hereinafter “Compound C”).
An aliquot of test compound was placed in the liquid at a temperature of 37° C., and then after 24 hours the concentration of dissolved test compound was determined. pH of the solution at 24 hours was also measured.

[3] = Hygroscopicity by dynamic vapor sorption; details: transitioned from 5% to 95% relative humidity
Procedure: The title compound was analyzed for hygroscopicity by dynamic vapor sorption. Dynamic vapor sorption was performed using a Q5000SA. The sample (5-15 mg) was loaded into a metallic quartz sample pan, suspended from a microbalance, and exposed to a humidified stream of nitrogen gas. Weight changes were relative to a matching empty reference pan opposite the sample, suspended from the microbalance. The sample was held for a minimum of 10 min at each humidity level and only progressed to the next humidity level if there was <0.002% change in weight between measurements (interval: 5 s) or 60 min had elapsed. The following program was used: • 1. Equilibration at 50% RH • 2. 50% to 5% (50%, 35%, 20%, and 5%) • 3. 5% to 95%(5%, 20%, 35%, 50%, 65%, 80%, and 95%) • 4. 95% to 5% (95%, 80%, 65%, 50%, 35%, 20%, and 5%) • 5. 5% to 50%(5%, 20%, 35%, and 50%).

[4] = Six-month stability study at elevated temperature and relative humidity (40° C.±2° C., 75%±5% RH); details: 40° C./75% RH
Procedure: A six-month stability study was conducted on the crystalline form of (S)-1-((R)-3-amino-1-(4-((6-amino-9H-purin-9-yl)methyl)-6-(2,5-difluoro-4-methoxyphenyl) pyridin-3-yl)piperidin-3-yl)-2,2-difluoroethan-1-ol D-tartaric acid salt having an XRDP pattern as set forth in Example 4. In particular, an aliquot of the crystalline (S)-1-((R)-3-amino-1-(4-((6-amino-9H-purin-9-yl)methyl)-6-(2,5-difluoro-4-methoxyphenyl) pyridin-3-yl)piperidin-3-yl)-2,2-difluoroethan-1-ol D-tartaric acid salt was stored for six months at a temperature of 40° C.±2° C. where the relative humidity was 75%±5%. A sample of the crystalline (S)-1-((R)-3-amino-1-(4-((6-amino-9H-purin-9-yl)methyl)-6-(2,5-difluoro-4-methoxyphenyl) pyridin-3-yl)piperidin-3-yl)-2,2-difluoroethan-1-ol D-tartaric acid salt was analyzed at the following time points in the experiment: 0 days (i.e., at the start of the experiment), 1 month, 3 months, and 6 months. The following parameters were evaluated at each time point: physical appearance, water content by coulometric Karl Fischer (CKF) determination, purity by ultra-performance liquid chromatography (UPLC), and total amount of related substances. XRPD analysis was performed on a compound sample at time points 0 days and at 6 months.

[5] = Accelerated stability study (six days, 75% RH, 40° C.)
Procedure: An accelerated stability study was conducted on the crystalline form of (S)-1-((R)-3-amino-1-(4-((6-amino-9H-purin-9-yl)methyl)-6-(2,5-difluoro-4-methoxyphenyl) pyridin-3-yl)piperidin-3-yl)-2,2-difluoroethan-1-ol D-tartaric acid salt, prepared as described in Example 1. Approximately 12 mg of solid was placed into a 4-mL vial, and then the vial was covered with a Kimwipe. The vial was stored for six days inside a stability chamber producing a relative humidity of 75% at 40° C.

[6] = Water content by Karl Fischer titration
Procedure: The title compound was analyzed for water content by Karl Fischer (KF) titration, and determined to have a water content of 1.22 wt %. Karl Fischer (KF) titration for water determination was performed using a Mettler Toledo C20S Coulometric KF Titrator equipped with a current generator cell with a diaphragm, and a double-platinum-pin electrode. The range of detection of the instrument is 1 ppm to 5% water. Aquastar™ CombiCoulomat fritless reagent was used in both the anode and cathode compartments. Samples of approximately 0.03-0.10 g were dissolved in the anode compartment and titrated until the solution potential dropped below 100 mV. Hydranal 1 wt % water standard was used for validation prior to sample analysis.

[7] = Water solubility of crystalline form at pH 6.8 and 37° C.; details: aqueous buffer, pH 6.8, 37° C.
[8] = One year stability study (25° C.±2° C., 60%±5% RH); details: 25° C./60% RH
Procedure: A one-year stability study was conducted on the crystalline form of (S)-1-((R)-3-amino-1-(4-((6-amino-9H-purin-9-yl)methyl)-6-(2,5-difluoro-4-methoxyphenyl) pyridin-3-yl)piperidin-3-yl)-2,2-difluoroethan-1-ol D-tartaric acid salt having an XRDP pattern as set forth in Example 4. In particular, an aliquot of the crystalline (S)-1-((R)-3-amino-1-(4-((6-amino-9H-purin-9-yl)methyl)-6-(2,5-difluoro-4-methoxyphenyl) pyridin-3-yl)piperidin-3-yl)-2,2-difluoroethan-1-ol D-tartaric acid salt was stored for 1 year at a temperature of 25° C.±2° C. where the relative humidity was 60%±5%. A sample of the crystalline (S)-1-((R)-3-amino-1-(4-((6-amino-9H-purin-9-yl)methyl)-6-(2,5-difluoro-4-methoxyphenyl) pyridin-3-yl)piperidin-3-yl)-2,2-difluoroethan-1-ol D-tartaric acid salt was analyzed at the following time points in the experiment: 0 days (i.e., at the start of the experiment), 1 month, 3 months, 6 months, 9 months, and 12 months. The following parameters were evaluated at each time point: physical appearance, water content by coulometric Karl Fischer (CKF) determination, purity by ultra-performance liquid chromatography (UPLC), and total amount of related substances. XRPD analysis was performed on a compound sample at time points 0 days and at 12 months.

[9] = fassif, fasted state simulated intestinal fluid
[10] = fasted state simulated intestinal fluid

COc1cc(F)c(-c2cc(Cn3cnc4c(N)ncnc43)c(N3CCC[C@](N)([C@H](O)C(F)F)C3)cn2)cc1F.Cl [hydrochloric acid salt]
hydrate formation / anhydrous form [1]: observed to form hydrates

COc1cc(F)c(-c2cc(Cn3cnc4c(N)ncnc43)c(N3CCC[C@](N)([C@H](O)C(F)F)C3)cn2)cc1F.O=C(O)/C=C/C(=O)O [Compound B, (S)-1-((R)-3-amino-1-(4-((6-amino-9H-purin-9-yl)methyl)-6-(2,5-difluoro-4-methoxyphenyl)pyridin-3-yl)piperidin-3-yl)-2,2-difluoroethan-1-ol fumaric acid salt]
hydrate formation / anhydrous form [1]: observed to form hydrates | solubility at 24 h [2, 9]: 506 µg/mL | pH of Liquid Medium at 24 Hours [2, 10]: 6.06 | solubility at 24 h ([2]; water): 488 µg/mL | pH of Liquid Medium at 24 Hours ([2]; water): 4.03

COc1cc(F)c(-c2cc(Cn3cnc4c(N)ncnc43)c(N3CCC[C@](N)([C@H](O)C(F)F)C3)cn2)cc1F.O=C(O)C(O)C(O)C(=O)O [Compound A, (S)-1-((R)-3-amino-1-(4-((6-amino-9H-purin-9-yl)methyl)-6-(2,5-difluoro-4-methoxyphenyl)pyridin-3-yl)piperidin-3-yl)-2,2-difluoroethan-1-ol D-tartaric acid salt]
hydrate formation / anhydrous form [1]: could be obtained in anhydrous form | hygroscopicity ([1]; long-duration stability studies): low hygroscopicity | increase in weight in dynamic vapor sorption [3]: 4.858% | API Purity by UPLC ([4]; 1 month): 100.0 % area in LC trace | Physical Appearance ([4]; 1 month): white wolid | Total Amount of Related Substances by UPLC ([4]; 1 month): 0.05 % w/w | Water Content by CKF ([4]; 1 month): 0.4 % w/w | API Purity by UPLC ([4]; 3 months): 100.0 % area in LC trace | Physical Appearance ([4]; 3 months): white wolid | Total Amount of Related Substances by UPLC ([4]; 3 months): 0.05 % w/w | Water Content by CKF ([4]; 3 months): 0.4 % w/w | API Purity by UPLC ([4]; 6 months): 100.0 % area in LC trace | Physical Appearance ([4]; 6 months): white wolid | Total Amount of Related Substances by UPLC ([4]; 6 months): <0.05 % w/w | Water Content by CKF ([4]; 6 months): 0.4 % w/w | API Purity by UPLC ([4]; day 0): 100.0 % area in LC trace | Physical Appearance ([4]; day 0): white wolid | Total Amount of Related Substances by UPLC ([4]; day 0): <0.05 % w/w | Water Content by CKF ([4]; day 0): 0.2 % w/w | XRPD spectrum after storage versus day 0 ([4]; stored for 6 months): matched the XRPD spectrum obtained on said compound at the beginning of the stability study | XRPD of recovered salt ([5]; after six days, 75% relative humidity, 40° C.): no change of the crystalline form | purity by HPLC ([5]; after the study: six days, 75% relative humidity, 40° C.): 99.45 area percent | purity by HPLC ([5]; before the study): 99.53 area percent | solubility at 24 h [2, 9]: 1600 µg/mL | pH of Liquid Medium at 24 Hours [2, 10]: 5.71 | solubility at 24 h ([2]; water): 2400 µg/mL | pH of Liquid Medium at 24 Hours ([2]; water): 3.59 | water content by Karl Fischer (KF) titration [6]: 1.22 wt % | solubility at 30 min ([7]; after 30 minutes): > 2000 µg/mL | solubility at 24 h ([7]; after 24 hours): > 2000 µg/mL | API Purity by UPLC ([8]; 1 month): 99.9 % area in LC trace | Physical Appearance ([8]; 1 month): white | Total Amount of Related Substances by UPLC ([8]; 1 month): 0.05 % w/w | Water Content by CKF ([8]; 1 month): 0.3 % w/w | API Purity by UPLC ([8]; 3 months): 100.0 % area in LC trace | Physical Appearance ([8]; 3 months): white | Total Amount of Related Substances by UPLC ([8]; 3 months): 0.05 % w/w | Water Content by CKF ([8]; 3 months): 0.4 % w/w | API Purity by UPLC ([8]; 6 months): 100.0 % area in LC trace | Physical Appearance ([8]; 6 months): white | Total Amount of Related Substances by UPLC ([8]; 6 months): <0.05 % w/w | Water Content by CKF ([8]; 6 months): 0.3 % w/w | API Purity by UPLC ([8]; 9 months): 100.0 % area in LC trace | Physical Appearance ([8]; 9 months): white | Total Amount of Related Substances by UPLC ([8]; 9 months): <0.05 % w/w | Water Content by CKF ([8]; 9 months): 0.2 % w/w | API Purity by UPLC ([8]; 12 months): 100.0 % area in LC trace | Physical Appearance ([8]; 12 months): white | Total Amount of Related Substances by UPLC ([8]; 12 months): 0.05 % w/w | Water Content by CKF ([8]; 12 months): 0.3 % w/w | API Purity by UPLC ([8]; day 0): 100.0 % area in LC trace | Physical Appearance ([8]; day 0): white wolid | Total Amount of Related Substances by UPLC ([8]; day 0): <0.05 % w/w | Water Content by CKF ([8]; day 0): 0.2 % w/w | XRPD spectrum after storage versus day 0 ([8]; stored for 12 months): matched the XRPD spectrum obtained on said compound at the beginning of the stability study

COc1cc(F)c(-c2cc(Cn3cnc4c(N)ncnc43)c(N3CCC[C@](N)([C@H](O)C(F)F)C3)cn2)cc1F [Compound C, (S)-1-((R)-3-amino-1-(4-((6-amino-9H-purin-9-yl)methyl)-6-(2,5-difluoro-4-methoxyphenyl)pyridin-3-yl)piperidin-3-yl)-2,2-difluoroethan-1-ol free base]
solubility at 24 h [2, 9]: 298 µg/mL (≈ 545 µM) | pH of Liquid Medium at 24 Hours [2, 10]: 6.61 | solubility at 24 h ([2]; water): 0.2 µg/mL (≈ 0.366 µM) | pH of Liquid Medium at 24 Hours ([2]; water): 6.92
